Assay results: patent publication US20110130466A1 (priority 2009, published 2011)
Read-outs that look alike come from different tables or passages of the source.

Experiments:
PSP patients [1] = settings: patient 5, after 6 months of treatment with rasagiline (FIG. 2)
Description: (§1) The following clinical factors were analyzed: • 1. Patients and relatives received a protocol to document the frequency of falls. • 2. 12 of the patients were analyzed using posturographic measurements. • 3. Depression was evaluated using clinical criteria (DSM-IV). • 4. Eye movements were orthoptically evaluated (in some cases an electronystagmogram was performed). • 5. Dysarthria was investigated using the Bogenhausener dysarthria scale (BoDys) (ranges from 4=normal until 0=anarthria). • 6. Dysphagia was clinically documented and the introduction of a percutaneous feeding tube (PEG) was recorded. • 7. Incidence of pneumonia was recorded. • 8. Impulse control disorder and hallucinations were recorded. • 9. Possible side effects were recorded. • 10.

[2] = tested on: Bcl-2 and Bcl-xL expression; settings: parallel to downregulation of pro-apoptotic Bad and Bax; Youdim et al. 2003; cited from earlier work
[3] = tested on: apoptotic cell death initiated by mitochondria; settings: cell culture, Youdim et al. 2001; Akao et al. 2002; cited from earlier work
patients with PSP = settings: 1 mg/day
Description: A clinical trial is performed according to the following guidelines: [table]

[4] = tested on: animal models of closed head trauma; settings: global focal ischemia, MPTP-induced neurotoxicity, ALS transgenic model, 6-OHDA model; cited from earlier work
PSP patients [5] = settings: for dysphagia, need for a PEG: PSP patients without PEG at initiation, observation phase; for frequency of falls, MW (mean): mean of documented PSP patients, baseline 23.059
Description: Eight men and nine women were treated.
as §1

[6] = PSP patients, rasagiline 1 mg/day

In the case of C#CCN[C@@H]1CCc2ccccc21 [rasagiline, R(+)-N-propargyl-1-aminoindan], the “posturographic measurement, before vs after treatment” value (PSP patients [1]) is listed as “shows an improvement”, the “expression of anti-apoptotic Bcl-2 and Bcl-xL” value [2] is listed as “induces increase” and the “suppression of apoptotic cell death” value [3] is listed as “potently suppresses apoptotic cell death”. For the same compound, the “reduction of the reported deterioration (PSPRS)” value (patients with PSP; 1 year, vs reported mean yearly increase of 9.7) was 33%, the “safety, gait disturbances and postural stability” value (patients with PSP; posturographic measurement) was “safe and effective in reducing gait disturbances and in enhancing postural stability” and the neuroprotection [4] was “Neuroprotection by rasagiline was achieved”. For the same compound, the “dysarthria, mean on the BoDys scale” value (PSP patients [5]; 10 patients, during observation time, from a mean of 2.5±0.5, 4=normal, 0=anarthria) was 2.7±0.5, the “deaths during the observation time” value (PSP patients [5]; 17 PSP patients, patients 9 and 4, both after treatment had ended) was “Two patients died” and the “dysphagia, need for a PEG” value (PSP patients [5]) was “none of the other patients required a PEG”. The “dysphagia, need for a PEG” value (PSP patients [5]; listed as Rasagiline) was “effective in improving or slowing progression of dysphagia”, the “period of treatment in which the reduction of the frequency of falls mainly took place” value (PSP patients [5]; [6]) was no more than 7 months and the “postural instability / number of falls (in words)” value (PSP patients [5]; [6]) was “improvement in postural instability was evident within the first 7 months”. The “postural instability / number of falls (in words)” value (PSP patients [5]; PSP patients, rasagiline 1 mg/day, listed as Rasagiline) was “effective in reducing the number of falls”, the “frequency of falls, MW (mean)” value (PSP patients [5]; 1 Month of rasagiline 1 mg/day) was 19.824 falls/week and the “frequency of falls, MW (mean)” value (PSP patients [5]; 2 Months of rasagiline 1 mg/day) was 20.692 falls/week. For the same compound, the “frequency of falls, MW (mean)” value (PSP patients [5]; 3 Months of rasagiline 1 mg/day) was 20.833 falls/week, the “frequency of falls, MW (mean)” value (PSP patients [5]; 4 Months of rasagiline 1 mg/day) was 20.667 falls/week and the “frequency of falls, MW (mean)” value (PSP patients [5]; 5 Months of rasagiline 1 mg/day) was 20.917 falls/week. For the same compound, the “frequency of falls, MW (mean)” value (PSP patients [5]; 6 Months of rasagiline 1 mg/day) was 19.923 falls/week, the “frequency of falls, MW (mean)” value (PSP patients [5]; 7 Months of rasagiline 1 mg/day) was 21.917 falls/week and the “frequency of falls, MW (mean)” value (PSP patients [5]; 8 Months of rasagiline 1 mg/day) was 23.5 falls/week. For the same compound, the “frequency of falls, MW (mean)” value (PSP patients [5]; 9 Months of rasagiline 1 mg/day) was 22.818 falls/week, the “frequency of falls, MW (mean)” value (PSP patients [5]; 10 Months of rasagiline 1 mg/day) was 25.1 falls/week and the “frequency of falls, MW (mean)” value (PSP patients [5]; 11 Months of rasagiline 1 mg/day) was 25.889 falls/week. The “frequency of falls, MW (mean)” value (PSP patients [5]; 12 Months of rasagiline 1 mg/day) was 24.6 falls/week, the impulse control disorder (PSP patients [5]; one patient with impulse control disorder at initiation) was “not influenced by treatment with rasagiline” and the “treating physician's assessment of deaths and intracranial haemorrhage after fall” value (PSP patients [5]; patients 9, 4 and 12) was “not related to rasagiline”. For the same compound, the “effect on eye movements” value (PSP patients [5]; rasagiline 1 mg/day) was “No effect”, the depression during treatment (PSP patients [5]; rasagiline 1 mg/day, 12 months observation, listed as Rasagiline) was “effective in reducing or eliminating depression” and the “reversibility of side effects after termination” value (PSP patients [5]; three patients with side effects) was “completely reversible”.
